Legend:
[1] = target: T1, Human TRPA1 expressing CHO cells (Homo sapiens, UniProt O75762); experiment: 45Calcium uptake assay, inhibition of AITC induced calcium uptake (human); type: cell-based; details: human TRPA1 CHO cells, AITC 30 μM; for inhibition at 1 µM: compound 1.0 μM, read-out: Percentage inhibition at 1.0 μM; for inhibition at 10 µM: compound 10.0 μM, read-out: Percentage inhibition at 10.0 μM; for IC50: read-out: Human IC50 value (Range)
T1 construct: expressed in transfected cells; host or cells: CHO cells (G-418 selection)
T1 sequence (O75762 whole entry): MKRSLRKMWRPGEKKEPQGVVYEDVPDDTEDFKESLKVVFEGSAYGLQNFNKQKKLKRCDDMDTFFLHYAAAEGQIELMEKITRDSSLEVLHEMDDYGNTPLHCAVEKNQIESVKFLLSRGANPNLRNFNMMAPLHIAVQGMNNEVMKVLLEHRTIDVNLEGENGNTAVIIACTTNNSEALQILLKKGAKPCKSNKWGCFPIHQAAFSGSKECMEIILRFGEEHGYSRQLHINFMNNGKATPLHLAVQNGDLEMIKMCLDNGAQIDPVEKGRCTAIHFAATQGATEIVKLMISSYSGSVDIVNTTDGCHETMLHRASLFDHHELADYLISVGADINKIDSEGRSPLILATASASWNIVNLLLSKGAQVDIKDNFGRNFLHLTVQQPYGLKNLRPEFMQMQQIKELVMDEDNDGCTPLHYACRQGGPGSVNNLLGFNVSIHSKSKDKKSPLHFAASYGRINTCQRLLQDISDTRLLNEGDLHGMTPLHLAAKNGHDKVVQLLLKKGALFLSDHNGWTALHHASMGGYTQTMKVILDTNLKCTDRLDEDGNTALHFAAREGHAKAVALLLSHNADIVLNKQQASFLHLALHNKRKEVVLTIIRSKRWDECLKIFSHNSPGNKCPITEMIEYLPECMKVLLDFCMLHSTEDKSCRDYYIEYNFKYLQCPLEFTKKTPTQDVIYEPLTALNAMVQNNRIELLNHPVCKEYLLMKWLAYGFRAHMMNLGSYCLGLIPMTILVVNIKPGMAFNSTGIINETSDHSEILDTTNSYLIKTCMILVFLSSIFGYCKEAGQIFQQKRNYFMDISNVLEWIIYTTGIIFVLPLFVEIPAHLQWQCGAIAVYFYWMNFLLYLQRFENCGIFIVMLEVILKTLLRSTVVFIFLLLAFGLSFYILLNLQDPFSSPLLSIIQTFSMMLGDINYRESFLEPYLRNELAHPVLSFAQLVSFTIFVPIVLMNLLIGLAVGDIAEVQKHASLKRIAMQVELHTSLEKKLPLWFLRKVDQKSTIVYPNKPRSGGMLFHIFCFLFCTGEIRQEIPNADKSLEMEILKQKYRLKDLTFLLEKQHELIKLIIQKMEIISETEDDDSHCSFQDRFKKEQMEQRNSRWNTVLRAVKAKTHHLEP
Outline: (§1)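 CHO cells expressing rat or human TRPA1 were pre-treated with compound for 10 min, then given AITC (30 μM human, 10 μM rat) plus 5 μCi/ml 45Ca2+ for 3 min; final DMSO 0.5%. Lysate radioactivity was counted by scintillation. IC50 came from nonlinear regression of concentration-response curves as % of maximal response.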

[2] = target: T2, Rat TRPA1 expressing CHO cells (Rattus norvegicus, UniProt Q6RI86); experiment: 45Calcium uptake assay, inhibition of AITC induced calcium uptake (rat); type: cell-based; details: rat TRPA1 CHO cells, AITC 10 μM; for inhibition at 1 µM: compound 1.0 μM, read-out: Percentage inhibition at 1.0 μM; for inhibition at 10 µM: compound 10.0 μM, read-out: Percentage inhibition at 10.0 μM; for IC50: read-out: Rat IC50 value (Range)
T2 construct: expressed in transfected cells; host or cells: CHO cells (Zeocin selection)
T2 sequence (Q6RI86 whole entry): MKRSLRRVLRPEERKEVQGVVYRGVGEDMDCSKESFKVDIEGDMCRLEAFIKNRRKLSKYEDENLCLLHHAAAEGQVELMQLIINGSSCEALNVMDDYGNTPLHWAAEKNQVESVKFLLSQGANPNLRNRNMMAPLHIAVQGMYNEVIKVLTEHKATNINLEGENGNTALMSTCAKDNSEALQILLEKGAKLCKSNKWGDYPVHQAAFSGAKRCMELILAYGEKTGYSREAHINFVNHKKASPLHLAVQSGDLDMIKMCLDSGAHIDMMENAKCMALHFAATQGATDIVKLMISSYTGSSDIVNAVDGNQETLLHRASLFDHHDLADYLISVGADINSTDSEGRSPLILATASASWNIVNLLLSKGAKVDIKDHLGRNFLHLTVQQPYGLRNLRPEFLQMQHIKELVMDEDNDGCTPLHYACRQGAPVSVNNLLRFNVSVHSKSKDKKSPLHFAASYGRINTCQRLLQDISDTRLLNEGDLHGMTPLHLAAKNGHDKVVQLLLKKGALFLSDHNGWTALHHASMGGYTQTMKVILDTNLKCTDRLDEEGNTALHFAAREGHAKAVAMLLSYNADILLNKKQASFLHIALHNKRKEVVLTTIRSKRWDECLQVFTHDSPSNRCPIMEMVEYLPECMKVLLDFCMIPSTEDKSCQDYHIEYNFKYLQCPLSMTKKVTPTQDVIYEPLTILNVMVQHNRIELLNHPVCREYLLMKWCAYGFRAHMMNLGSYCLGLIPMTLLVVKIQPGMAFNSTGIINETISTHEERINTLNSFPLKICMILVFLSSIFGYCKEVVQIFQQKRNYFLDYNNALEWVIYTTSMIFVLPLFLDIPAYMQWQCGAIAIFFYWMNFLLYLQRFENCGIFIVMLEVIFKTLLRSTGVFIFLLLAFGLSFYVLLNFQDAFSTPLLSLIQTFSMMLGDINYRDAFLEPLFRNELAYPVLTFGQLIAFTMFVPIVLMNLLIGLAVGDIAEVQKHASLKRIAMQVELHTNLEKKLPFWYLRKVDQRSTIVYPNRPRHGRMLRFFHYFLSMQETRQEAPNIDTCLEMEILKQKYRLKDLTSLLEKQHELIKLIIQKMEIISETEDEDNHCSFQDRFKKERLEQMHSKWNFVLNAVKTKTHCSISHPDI
Outline: as §1

inhibition at 1 µM [1] [%]	inhibition at 10 µM [1] [%]	IC50 [1] [nM]	inhibition at 1 µM [2] [%]	inhibition at 10 µM [2] [%]	IC50 [2] [nM]	SMILES
95.5	98.9	50 to 500	92.5	100	–	Cn1c(=O)c2c(CC(=O)Nc3nc(-c4cccc(OC(F)(F)F)c4)cs3)scc2n(C)c1=O [Example 48, 2-(1,3-Dimethyl-2,4-dioxo-1,2,3,4-tetrahydrothieno[3,4-d]pyrimidin-5-yl)-N-{4-[3-(trifluoromethoxy)phenyl]-1,3-thiazol-2-yl}acetamide]
96	99.8	< 50	89.9	99	50 to 500	Cn1c(=O)c2c(CC(=O)Nc3nc(-c4ccc(F)c(C(F)(F)F)c4)cs3)scc2n(C)c1=O [Example 49, 2-(1,3-Dimethyl-2,4-dioxo-1,2,3,4-tetrahydrothieno[3,4-d]pyrimidin-5-yl)-N-{4-[4-fluoro-3-(trifluoromethyl)phenyl]-1,3-thiazol-2-yl}acetamide]
99.5	100	< 50	57.4	99.1	–	Cn1c(=O)c2c(CC(=O)Nc3nc(-c4ccc(C(F)(F)F)c(F)c4)cs3)scc2n(C)c1=O [Example 50, 2-(1,3-Dimethyl-2,4-dioxo-1,2,3,4-tetrahydrothieno[3,4-d]pyrimidin-5-yl)-N-{4-[3-fluoro-4-(trifluoromethyl)phenyl]-1,3-thiazol-2-yl}acetamide]
96.9	99.7	< 50	93	100	50 to 500	Cn1c(=O)c2c(CC(=O)Nc3nc(-c4ccc(C(F)(F)F)cc4F)cs3)scc2n(C)c1=O [Example 51, 2-(1,3-Dimethyl-2,4-dioxo-1,2,3,4-tetrahydrothieno[3,4-d]pyrimidin-5-yl)-N-{4-[2-fluoro-4-(trifluoromethyl)phenyl]-1,3-thiazol-2-yl}acetamide]
98	94.4	< 50	92.3	98.1	50 to 500	Cn1c(=O)c2c(CC(=O)Nc3nc(-c4ccc(OC(F)(F)F)c(F)c4)cs3)scc2n(C)c1=O [Example 52, 2-(1,3-Dimethyl-2,4-dioxo-1,2,3,4-tetrahydrothieno[3,4-d]pyrimidin-5-yl)-N-{4-[3-fluoro-4-(trifluoromethoxy)phenyl]-1,3-thiazol-2-yl}acetamide]
99.6	99.8	< 50	70.4	99.9	–	Cn1c(=O)c2c(CC(=O)Nc3nc(-c4ccc(F)c(OC(F)(F)F)c4)cs3)scc2n(C)c1=O [Example 55, 2-(1,3-Dimethyl-2,4-dioxo-1,2,3,4-tetrahydrothieno[3,4-d]pyrimidin-5-yl)-N-{4-[4-fluoro-3-(trifluoromethoxy)phenyl]-1,3-thiazol-2-yl}acetamide]

The next lines start with the molecule.

SMILES	inhibition at 1 µM [1] [%]	inhibition at 10 µM [1] [%]	IC50 [1] [nM]	inhibition at 1 µM [2] [%]	inhibition at 10 µM [2] [%]	IC50 [2] [nM]
Cn1c(=O)c2c(CC(=O)Nc3nc(-c4ccc(C(F)(F)F)cc4)cs3)scc2n(C)c1=O [Example 47]	97.9	98.8	< 50	88.9	99.6	–
Cn1c(=O)c2c(CC(=O)Nc3nc(-c4ccc(Cl)c(Cl)c4)cs3)scc2n(C)c1=O [Example 53, N-[4-(3,4-Dichlorophenyl)-1,3-thiazol-2-yl]-2-(1,3-dimethyl-2,4-dioxo-1,2,3,4-tetrahydrothieno[3,4-d]pyrimidin-5-yl)acetamide]	97.8	99.3	50 to 500	42.7	97.9	–
Cn1c(=O)c2c(CC(=O)Nc3nc(-c4cc(F)cc(C(F)(F)F)c4)cs3)scc2n(C)c1=O [Example 54, 2-(1,3-Dimethyl-2,4-dioxo-1,2,3,4-tetrahydrothieno[3,4-d]pyrimidin-5-yl)-N-{4-[3-fluoro-5-(trifluoromethyl)phenyl]-1,3-thiazol-2-yl}acetamide]	95.1	99.7	< 50	41.6	91.8	–
Cn1c(=O)c2c(CC(=O)Nc3nc(-c4ccc(C(F)(F)F)c(F)c4F)cs3)scc2n(C)c1=O [Example 56, N-{4-[2,3-Difluoro-4-(trifluoromethyl)phenyl]-1,3-thiazol-2-yl}-2-(1,3-dimethyl-2,4-dioxo-1,2,3,4-tetrahydrothieno[3,4-d]pyrimidin-5-yl)acetamide]	94.4	99.5	< 50	96.9	100	50 to 500
Cn1c(=O)c2c(CC(=O)Nc3nc(-c4ccc(F)c(C(F)(F)F)c4F)cs3)scc2n(C)c1=O [Example 57, N-{4-[2,4-Difluoro-3-(trifluoromethyl)phenyl]-1,3-thiazol-2-yl}-2-(1,3-dimethyl-2,4-dioxo-1,2,3,4-tetrahydrothieno[3,4-d]pyrimidin-5-yl)acetamide]	96.9	91	< 50	97	100	< 50
Cn1c(=O)c2c(CC(=O)Nc3nc(-c4cc(F)c(C(F)(F)F)c(F)c4)cs3)scc2n(C)c1=O [Example 58, N-{4-[3,5-difluoro-4-(trifluoromethyl)phenyl]-1,3-thiazol-2-yl}-2-(1,3-dimethyl-2,4-dioxo-1,2,3,4-tetrahydrothieno[3,4-d]pyrimidin-5-yl)acetamide]	84.9	95.8	< 50	71.1	71.7	–
Cn1c(=O)c2c(CC(=O)Nc3nc(-c4cc(F)c(OC(F)F)c(F)c4)cs3)scc2n(C)c1=O [Example 59, N-{4-[4-(Difluoromethoxy)-3,5-difluorophenyl]-1,3-thiazol-2-yl}-2-(1,3-dimethyl-2,4-dioxo-1,2,3,4-tetrahydrothieno[3,4-d]pyrimidin-5-yl)acetamide]	89.3	91.4	< 50	12.7	87.6	–
Cn1c(=O)c2c(CC(=O)Nc3nc(-c4cc(F)c(OCC(F)(F)F)c(F)c4)cs3)scc2n(C)c1=O [Example 60, N-{4-[3,5-Difluoro-4-(2,2,2-trifluoro-ethoxy)phenyl]-1,3-thiazol-2-yl}-2-(1,3-dimethyl-2,4-dioxo-1,2,3,4-tetrahydrothieno[3,4-d]pyrimidin-5-yl)acetamide]	98	97.4	< 50	21	95.9	–

From patent publication US9474758B2, “Thienopyrimidinedione derivatives as TRPA1 modulators” (Glenmark Pharmaceuticals S.A., priority 2009, dated 2016)
